Results from US8877778B2, “Benzofurane compounds” (Hoffmann-La Roche Inc., priority 2010, dated 2014).
pKi: −log10 of the molar value.

Tests used:
[1] = target: human 5-HT2A receptor (Homo sapiens (Human), UniProt P28223); test: Radioligand binding ([3H]-ketanserin) to cloned receptors expressed in HEK-293 EBNA cells; conditions: HEK293 EBNA cell membranes expressing human 5-HT2A
Description: (§1) HEK293 EBNA cells were transiently transfected with expression plasmids encoding for the human D2 or D3 or for the human 5-HT2A receptor, respectively. The cells were harvested 48 h post-transfection, washed three times with cold PBS and stored at −80° C. prior to use. The pellet was suspended in cold 50 mM Tris-HCl buffer comprising 10 mM EDTA (pH 7.4) and was homogenized with a Polytron (Kinematica AG, Basel, Switzerland) for 20-30 sec at 12.000 rpm. After centrifugation at 48.000×g for 30 min at 4° C., the pellet was resuspended in cold 10 mM Tris-HCl buffer comprising 0.1 mM EDTA (pH 7.4), homogenized, and centrifuged as above. This pellet was further resuspended in a smaller volume of ice cold 10 mM Tris-HCl buffer comprising 0.1 mM EDTA (pH 7.4) and homogenized with a Polytron for 20-30 sec at 12.000 rpm. The protein content of this homogenate was determined with the Bio-Rad (Bradford) Protein Assay (Biorad Laboratories GmbH, München, Germany) according to the instructions of the manufacturer using gamma globulin as the standard. This homogenate was stored at −80° C. in aliquots and thawed immediately prior to use.
(§2) Aliquots of membrane preparations were thawed at RT, resupended in assay buffer (D2, D3: 50 mM Tris-HCl, 120 mM NaCl, 5 mM MgCl2, 1 mM EDTA, 5 mM KCl, 1.5 mM CaCl2, pH=7.4; 5-HT2A: 50 mM Tris-HCl, 10 mM MgCl2, 1 mM EGTA, pH=7.4), homogenized with a Polytron for 20-30 sec at 12.000 rpm and adjusted to a final concentration of approximately 7.5 μg protein/well (D2, D3) and 15 μg protein/well (5-HT2A), respectively.
(§3) The binding affinity (Ki) of the compounds was determined using radioligand binding. Membranes were incubated in a total volume of 200 μl with a fixed concentration of radioligand (final concentration approximately 0.7 nM [^3H]-spiperone for D2, 0.5 nM [^3H]-spiperone for D3, and 1.1 nM [^3H]-ketanserin for 5-HT2A) and ten concentrations of test compound in ranging between 10 μM-0.1 nM for 1 h at RT. At the end of the incubation, the reaction mixtures were filtered on to unifilter 96-well white microplates with bonded GF/C filters (Packard BioScience, Zürich, Switzerland; preincubated for 1 h in 0.1% polyethylenimine (PEI) in assay buffer) with a Filtermate 196 harvester (Packard BioScience) and washed 3 times with cold assay buffer. The nonspecific binding was determined with equally composed reaction mixtures in the presence of 10 μM unlabelled spiperone. Per well 45 μl of Microscint 40 (Perkin Elmer, Schwerzenbach, Switzerland) was added, plates for sealed, shaken for 20 min and counted for 3 min on a Topcount Microplate Scintillation Counter (Can berra Packard SA, Zürich, Switzerland) with quenching correction.
(§4) The CPM value for each duplicate of a concentration of competing compound was averaged (y1), then the % specific binding was calculated according to the equation (((y1−non-specific)/(total binding−non-specific))×100). Graphs were plotted with the % specific binding using XLfit, a curve fitting program that iteratively plots the data using Levenberg-Marquardt algorithm. The single site competition analysis equation used was y=A+((B−A)/(1+((x/C)D))), where y is the % specific binding, A is the minimum y, B is the maximum y, C is the IC50, x is the log 10 of the concentration of the competing compound and D is the slope of the curve (the Hill Coefficient). […] The affinity constant (Ki) was calculated using the Cheng-Prusoff equation Ki=(IC50/1+([L]/Kd), where [L] is the concentration of radioligand and Kd is the dissociation constant of the radioligand at the receptor as determined by the saturation isotherm.

[2] = target: human D3 receptor (Homo sapiens (Human), UniProt P35462); test: Radioligand binding ([3H]-spiperone) to cloned receptors expressed in HEK-293 EBNA cells; conditions: HEK293 EBNA cell membranes expressing human D3
Sequence of human D3 receptor (P35462 whole entry): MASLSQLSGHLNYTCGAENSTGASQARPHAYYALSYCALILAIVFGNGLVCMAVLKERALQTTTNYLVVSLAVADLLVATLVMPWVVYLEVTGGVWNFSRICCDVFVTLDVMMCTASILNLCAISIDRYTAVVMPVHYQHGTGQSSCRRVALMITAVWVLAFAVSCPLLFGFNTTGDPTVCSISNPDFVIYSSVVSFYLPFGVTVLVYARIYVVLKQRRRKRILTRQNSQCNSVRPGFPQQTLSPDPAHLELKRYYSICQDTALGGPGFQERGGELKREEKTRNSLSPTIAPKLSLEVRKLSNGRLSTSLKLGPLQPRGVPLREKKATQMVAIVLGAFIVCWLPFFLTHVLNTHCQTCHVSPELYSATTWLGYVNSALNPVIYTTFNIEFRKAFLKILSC
Description: as §1, §2, §3, §4

[3] = target: human D2 receptor (Homo sapiens (Human), UniProt P14416); test: as above; conditions: HEK293 EBNA cell membranes expressing human D2
Sequence of human D2 receptor (P14416 whole entry): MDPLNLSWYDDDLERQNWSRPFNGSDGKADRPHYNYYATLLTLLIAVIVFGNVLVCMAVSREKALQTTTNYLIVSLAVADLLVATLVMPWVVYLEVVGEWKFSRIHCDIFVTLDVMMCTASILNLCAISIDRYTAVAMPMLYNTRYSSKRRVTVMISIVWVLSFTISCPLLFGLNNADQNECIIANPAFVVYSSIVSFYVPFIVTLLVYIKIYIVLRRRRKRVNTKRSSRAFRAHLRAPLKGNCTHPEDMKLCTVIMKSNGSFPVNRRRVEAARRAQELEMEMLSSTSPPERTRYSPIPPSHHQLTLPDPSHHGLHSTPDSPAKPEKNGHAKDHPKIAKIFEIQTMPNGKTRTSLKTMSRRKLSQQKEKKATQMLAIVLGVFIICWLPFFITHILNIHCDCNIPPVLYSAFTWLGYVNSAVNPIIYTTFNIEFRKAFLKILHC
Description: as §1, §2, §3, §4

Sequence of human 5-HT2A receptor (P28223 whole entry): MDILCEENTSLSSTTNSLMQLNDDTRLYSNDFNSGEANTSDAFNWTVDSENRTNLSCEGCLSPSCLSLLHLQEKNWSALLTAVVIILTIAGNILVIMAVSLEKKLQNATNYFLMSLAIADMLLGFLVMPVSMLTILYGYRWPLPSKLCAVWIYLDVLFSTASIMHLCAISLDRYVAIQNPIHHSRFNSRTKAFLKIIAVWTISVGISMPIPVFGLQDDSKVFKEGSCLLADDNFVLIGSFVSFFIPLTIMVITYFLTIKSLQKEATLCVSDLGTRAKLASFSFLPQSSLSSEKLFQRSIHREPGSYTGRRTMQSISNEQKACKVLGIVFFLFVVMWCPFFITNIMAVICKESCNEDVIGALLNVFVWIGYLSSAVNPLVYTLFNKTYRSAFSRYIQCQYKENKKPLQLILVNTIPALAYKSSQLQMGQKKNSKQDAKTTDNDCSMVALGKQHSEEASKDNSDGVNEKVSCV

With O=C(CC1CCOCC1)N[C@H]1CC[C@H](CCN2CCC(c3cccc4c3CCO4)CC2)CC1 [Example 8, trans-N-(4-{2-[4-(2,3-Dihydro-benzofuran-4-yl)-piperidin-1-yl]-ethyl}-cyclohexyl)-2-(tetrahydro-pyran-4-yl)-acetamide] the melting point was 191 °C, the pKi [1] was 7.41 and the pKi [2] was 7.98. The pKi [3] was 6.19.
In the case of CCC(=O)N[C@H]1CC[C@H](CCN2CCC(c3cccc4occc34)CC2)CC1 [Example 9, trans-N-{4-[2-(4-Benzofuran-4-yl-piperidin-1-yl)-ethyl]-cyclohexyl}-propionamide], the melting point was 170 °C, the pKi [1] was 8.25 and the pKi [2] was 8.66. It also gave a pKi [3] of 7.04.
COCC(=O)N[C@H]1CC[C@H](CCN2CCC(c3cccc4occc34)CC2)CC1 [Example 10, trans-N-{4-[2-(4-Benzofuran-4-yl-piperidin-1-yl)-ethyl]-cyclohexyl}-2-methoxy-acetamide] gave a melting point of 124 °C, a pKi [1] of 8.38 and a pKi [2] of 7.98. The pKi [3] was 6.59.
With CS(=O)(=O)CC(=O)N[C@H]1CC[C@H](CCN2CCC(c3cccc4occc34)CC2)CC1 [Example 11, trans-N-{4-[2-(4-Benzofuran-4-yl-piperidin-1-yl)-ethyl]-cyclohexyl}-2-methanesulfonyl-acetamide] the melting point was 201 °C, the pKi [1] was 8.28 and the pKi [2] was 8.64. The pKi [3] was 6.81.
Work on CCC(=O)N[C@H]1CC[C@H](CCN2CCC(c3cccc4c3CCO4)CC2)CC1 [Example 13, trans-N-(4-{2-[4-(2,3-Dihydro-benzofuran-4-yl)-piperidin-1-yl]-ethyl}-cyclohexyl)-propionamide] yielded a melting point of 192 °C, a pKi [1] of 7.46 and a pKi [2] of 8.34. It also gave a pKi [3] of 6.46.
Molecule COCC(=O)N[C@H]1CC[C@H](CCN2CCC(c3cccc4c3CCO4)CC2)CC1 [Example 14, trans-N-(4-{2-[4-(2,3-Dihydro-benzofuran-4-yl)-piperidin-1-yl]-ethyl}-cyclohexyl)-2-methoxy-acetamide] has a melting point of 156 °C, a pKi [1] of 7.56 and a pKi [2] of 7.64. It also gave a pKi [3] of 6.17.
CS(=O)(=O)CC(=O)N[C@H]1CC[C@H](CCN2CCC(c3cccc4c3CCO4)CC2)CC1 [Example 15, trans-N-(4-{2-[4-(2,3-Dihydro-benzofuran-4-yl)-piperidin-1-yl]-ethyl}-cyclohexyl)-2-methanesulfonyl-acetamide] gave a melting point of 211 °C, a pKi [1] of 7.44 and a pKi [2] of 8.31. The pKi [3] was 6.38.
For O=C(N[C@H]1CC[C@H](CCN2CCC(c3cccc4c3CCO4)CC2)CC1)c1ccccc1 [Example 17, trans-N-(4-{2-[4-(2,3-Dihydro-benzofuran-4-yl)-piperidin-1-yl]-ethyl}-cyclohexyl)-benzamide], the melting point was 220 °C, the pKi [1] was 7.94 and the pKi [2] was 8.38. The pKi [3] was 6.50.
Molecule O=C(CC(F)(F)F)N[C@H]1CC[C@H](CCN2CCC(c3cccc4c3CCO4)CC2)CC1 [Example 18, trans-N-(4-{2-[4-(2,3-Dihydro-benzofuran-4-yl)-piperidin-1-yl]ethyl}-cyclohexyl)-3,3,3-trifluoro-propionamide] has a melting point of 197 °C, a pKi [1] of 7.47 and a pKi [2] of 8.36. The pKi [3] was 6.46.
With Cc1cc(CC(=O)N[C@H]2CC[C@H](CCN3CCC(c4cccc5c4CCO5)CC3)CC2)on1 [Example 19, trans-N-(4-{2-[4-(2,3-Dihydro-benzofuran-4-yl)-piperidin-1-yl]-ethyl}-cyclohexyl)-2-(3-methyl-isoxazol-5-yl)-acetamide] the melting point was 188 °C, the pKi [1] was 7.48 and the pKi [2] was 8.70. For the same molecule, the pKi [3] was 6.27.
O=C(CO)N[C@H]1CC[C@H](CCN2CCC(c3cccc4c3CCO4)CC2)CC1 [Example 20, trans-N-(4-{2-[4-(2,3-Dihydro-benzofuran-4-yl)-piperidin-1-yl]-ethyl}-cyclohexyl)-2-hydroxy-acetamide] gave a melting point of 154.5 °C, a pKi [1] of 7.60 and a pKi [2] of 8.00. The pKi [3] was 6.24.
CC(C)C(=O)N[C@H]1CC[C@H](CCN2CCC(c3cccc4c3CCO4)CC2)CC1 [Example 23, trans-N-(4-{2-[4-(2,3-Dihydro-benzofuran-4-yl)-piperidin-1-yl]-ethyl}-cyclohexyl)-isobutyramide] gave a melting point of 212 °C, a pKi [1] of 7.70 and a pKi [2] of 8.10. For the same molecule, the pKi [3] was 6.55.
Molecule CC(C)CC(=O)N[C@H]1CC[C@H](CCN2CCC(c3cccc4c3CCO4)CC2)CC1 [Example 24, trans-N-(4-{2-[4-(2,3-Dihydro-benzofuran-4-yl)-piperidin-1-yl]-ethyl}-cyclohexyl)-3-methyl-butyramide] has a melting point of 197 °C, a pKi [1] of 7.51 and a pKi [2] of 8.28. For the same molecule, the pKi [3] was 6.67.
In the case of O=C(N[C@H]1CC[C@H](CCN2CCC(c3cccc4c3CCO4)CC2)CC1)C1CCC1 [Example 26, Cyclobutanecarboxylic acid trans-(4-{2-[4-(2,3-dihydro-benzofuran-4-yl)-piperidin-1-yl]-ethyl}-cyclohexyl)-amide], the melting point was 197 °C, the pKi [1] was 7.69 and the pKi [2] was 8.08. For the same molecule, the pKi [3] was 6.84.
O=C(CCO)N[C@H]1CC[C@H](CCN2CCC(c3cccc4c3CCO4)CC2)CC1 [Example 27, trans-N-(4-{2-[4-(2,3-Dihydro-benzofuran-4-yl)-piperidin-1-yl]-ethyl}-cyclohexyl)-3-hydroxy-propionamide] gave a melting point of 158 °C, a pKi [1] of 7.21 and a pKi [2] of 8.19. It also gave a pKi [3] of 6.46.
Work on O=C(N[C@H]1CC[C@H](CCN2CCC(c3cccc4c3CCO4)CC2)CC1)C1(O)CC1 [Example 28, 1-Hydroxy-cyclopropanecarboxylic acid trans-(4-{2-[4-(2,3-dihydro-benzofuran-4-yl)-piperidin-1-yl]-ethyl}-cyclohexyl)-amide] yielded a melting point of 164 °C, a pKi [1] of 8.03 and a pKi [2] of 8.08. It also gave a pKi [3] of 6.52.
For O=C(N[C@H]1CC[C@H](CCN2CCC(c3cccc4c3CCO4)CC2)CC1)C1CC1 [Example 29, Cyclopropanecarboxylic acid trans-(4-{2-[4-(2,3-dihydro-benzofuran-4-yl)-piperidin-1-yl]-ethyl}-cyclohexyl)-amide], the melting point was 208 °C, the pKi [1] was 7.63 and the pKi [2] was 8.05. The pKi [3] was 6.82.
For O=C(CC1CC1)N[C@H]1CC[C@H](CCN2CCC(c3cccc4c3CCO4)CC2)CC1 [Example 30, trans-2-Cyclopropyl-N-(4-{2-[4-(2,3-dihydro-benzofuran-4-yl)-piperidin-1-yl]-ethyl}-cyclohexyl)-acetamide], the melting point was 189 °C, the pKi [1] was 7.54 and the pKi [2] was 8.54. For the same molecule, the pKi [3] was 6.57.
In the case of O=C(N[C@H]1CC[C@H](CCN2CCC(c3cccc4c3CCO4)CC2)CC1)c1ccc(N2CCOCC2)cc1 [Example 33, trans-N-(4-{2-[4-(2,3-Dihydro-benzofuran-4-yl)-piperidin-1-yl]-ethyl}-cyclohexyl)-4-morpholin-4-yl-benzamide], the melting point was 247 °C, the pKi [1] was 7.75 and the pKi [2] was 7.98. For the same molecule, the pKi [3] was 6.89.
O=C(N[C@H]1CC[C@H](CCN2CCC(c3cccc4c3CCO4)CC2)CC1)c1ccc(Cl)cc1 [Example 34, trans-4-Chloro-N-(4-{2-[4-(2,3-dihydro-benzofuran-4-yl)-piperidin-1-yl]-ethyl}-cyclohexyl)-benzamide] gave a melting point of 224 °C, a pKi [1] of 7.74 and a pKi [2] of 8.31. For the same molecule, the pKi [3] was 7.14.
